Results reported in article PMC8213057, “Targeting ALK2: An Open Science Approach to Developing Therapeutics for the Treatment of Diffuse Intrinsic Pontine Glioma” (Journal of Medicinal Chemistry, 2020).

Tests used:
TRKC = TRKC (Homo sapiens, UniProt Q16288); experiment: biochemical; conditions: read-out: % enzyme activity, 1 μM; Run 1, Run 2
DRAK1/STK17A = molecular target: T1, DRAK1/STK17A (Homo sapiens, UniProt Q9UEE5); experiment: biochemical; conditions: read-out: % enzyme activity, 1 μM; Run 1, Run 2
T1 sequence (Q9UEE5 1-414): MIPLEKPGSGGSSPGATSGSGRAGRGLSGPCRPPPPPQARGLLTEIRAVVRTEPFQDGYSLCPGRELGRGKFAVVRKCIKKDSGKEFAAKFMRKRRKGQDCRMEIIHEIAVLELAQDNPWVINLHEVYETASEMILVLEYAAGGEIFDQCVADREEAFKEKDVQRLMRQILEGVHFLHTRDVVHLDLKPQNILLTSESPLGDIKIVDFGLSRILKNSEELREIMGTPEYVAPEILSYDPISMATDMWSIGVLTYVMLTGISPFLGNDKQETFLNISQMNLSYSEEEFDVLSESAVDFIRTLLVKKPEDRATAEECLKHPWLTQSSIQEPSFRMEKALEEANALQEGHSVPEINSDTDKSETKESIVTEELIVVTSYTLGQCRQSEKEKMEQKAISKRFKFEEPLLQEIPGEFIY

SNARK/NUAK2 = molecular target: T2, SNARK/NUAK2 (Homo sapiens, UniProt Q9H093); conditions: 1 μM; Run 1, Run 2
T2 sequence (Q9H093 1-628): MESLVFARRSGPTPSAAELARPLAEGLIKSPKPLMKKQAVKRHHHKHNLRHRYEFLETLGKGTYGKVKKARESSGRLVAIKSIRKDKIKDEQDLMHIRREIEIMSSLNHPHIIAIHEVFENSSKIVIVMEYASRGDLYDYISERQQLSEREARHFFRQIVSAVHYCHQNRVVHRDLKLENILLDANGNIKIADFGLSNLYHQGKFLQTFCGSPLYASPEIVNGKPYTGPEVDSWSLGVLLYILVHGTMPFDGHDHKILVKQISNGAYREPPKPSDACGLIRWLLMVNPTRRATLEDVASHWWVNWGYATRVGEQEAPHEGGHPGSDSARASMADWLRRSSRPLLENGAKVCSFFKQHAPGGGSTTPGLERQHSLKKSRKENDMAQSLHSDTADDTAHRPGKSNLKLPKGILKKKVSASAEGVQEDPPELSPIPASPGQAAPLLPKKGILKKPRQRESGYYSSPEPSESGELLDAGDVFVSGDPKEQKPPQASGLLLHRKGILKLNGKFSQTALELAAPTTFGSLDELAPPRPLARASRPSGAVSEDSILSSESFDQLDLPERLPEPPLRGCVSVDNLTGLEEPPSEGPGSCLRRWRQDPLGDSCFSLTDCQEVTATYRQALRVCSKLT

PKCmu/PRKD1 = molecular target: T3, PKCmu/PRKD1 (Homo sapiens, UniProt Q15139); experiment: biochemical; conditions: read-out: % enzyme activity, 1 μM; Run 1, Run 2
T3 sequence (Q15139 1-912): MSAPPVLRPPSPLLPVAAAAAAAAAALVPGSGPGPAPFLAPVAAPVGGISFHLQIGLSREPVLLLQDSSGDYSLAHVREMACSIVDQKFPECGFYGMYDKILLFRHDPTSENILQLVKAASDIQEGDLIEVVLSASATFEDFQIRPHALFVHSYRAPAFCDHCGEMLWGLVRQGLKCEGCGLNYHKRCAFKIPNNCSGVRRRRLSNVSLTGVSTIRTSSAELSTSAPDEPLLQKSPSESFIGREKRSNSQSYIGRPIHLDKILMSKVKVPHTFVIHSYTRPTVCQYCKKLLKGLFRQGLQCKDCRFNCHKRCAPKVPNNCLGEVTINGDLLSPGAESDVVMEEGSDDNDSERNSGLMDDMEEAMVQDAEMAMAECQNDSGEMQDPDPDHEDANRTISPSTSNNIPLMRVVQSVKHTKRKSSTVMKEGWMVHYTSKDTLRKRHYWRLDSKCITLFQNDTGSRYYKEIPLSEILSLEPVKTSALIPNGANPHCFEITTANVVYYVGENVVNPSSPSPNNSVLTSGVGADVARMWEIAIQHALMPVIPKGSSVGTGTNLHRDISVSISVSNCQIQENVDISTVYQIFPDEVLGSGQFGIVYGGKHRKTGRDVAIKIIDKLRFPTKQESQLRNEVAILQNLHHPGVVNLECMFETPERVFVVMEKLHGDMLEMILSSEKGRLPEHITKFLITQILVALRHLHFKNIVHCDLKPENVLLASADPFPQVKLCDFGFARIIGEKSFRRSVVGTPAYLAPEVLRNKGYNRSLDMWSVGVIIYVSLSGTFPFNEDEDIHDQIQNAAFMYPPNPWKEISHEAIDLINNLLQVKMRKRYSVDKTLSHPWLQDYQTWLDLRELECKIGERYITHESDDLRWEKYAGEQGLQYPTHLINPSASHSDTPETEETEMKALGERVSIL

MEKK2 = molecular target: T4, MEKK2 (Homo sapiens, UniProt Q9Y2U5); conditions: 1 μM; Run 1, Run 2
T4 sequence (Q9Y2U5 1-619): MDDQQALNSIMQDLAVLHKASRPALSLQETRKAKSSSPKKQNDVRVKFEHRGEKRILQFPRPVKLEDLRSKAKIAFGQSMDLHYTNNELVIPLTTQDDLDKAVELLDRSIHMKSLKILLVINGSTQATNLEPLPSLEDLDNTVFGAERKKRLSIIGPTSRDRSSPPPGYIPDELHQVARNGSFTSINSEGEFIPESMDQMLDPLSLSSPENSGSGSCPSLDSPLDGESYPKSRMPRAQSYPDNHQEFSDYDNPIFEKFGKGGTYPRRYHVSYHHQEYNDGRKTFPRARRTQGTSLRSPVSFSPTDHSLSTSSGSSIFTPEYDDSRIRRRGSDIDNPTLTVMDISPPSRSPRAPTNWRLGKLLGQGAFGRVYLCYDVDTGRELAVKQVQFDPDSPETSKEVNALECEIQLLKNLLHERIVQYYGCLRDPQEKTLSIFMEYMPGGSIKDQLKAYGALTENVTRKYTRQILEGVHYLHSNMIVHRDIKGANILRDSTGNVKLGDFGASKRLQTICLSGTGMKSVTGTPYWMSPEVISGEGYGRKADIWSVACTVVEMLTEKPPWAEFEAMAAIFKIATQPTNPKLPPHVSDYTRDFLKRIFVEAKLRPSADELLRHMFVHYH

MEKK1 = MEKK1 (Homo sapiens, UniProt Q13233); experiment: biochemical; conditions: read-out: % enzyme activity, 1 μM; Run 1, Run 2
MEKK1, sequence (Q13233 whole entry): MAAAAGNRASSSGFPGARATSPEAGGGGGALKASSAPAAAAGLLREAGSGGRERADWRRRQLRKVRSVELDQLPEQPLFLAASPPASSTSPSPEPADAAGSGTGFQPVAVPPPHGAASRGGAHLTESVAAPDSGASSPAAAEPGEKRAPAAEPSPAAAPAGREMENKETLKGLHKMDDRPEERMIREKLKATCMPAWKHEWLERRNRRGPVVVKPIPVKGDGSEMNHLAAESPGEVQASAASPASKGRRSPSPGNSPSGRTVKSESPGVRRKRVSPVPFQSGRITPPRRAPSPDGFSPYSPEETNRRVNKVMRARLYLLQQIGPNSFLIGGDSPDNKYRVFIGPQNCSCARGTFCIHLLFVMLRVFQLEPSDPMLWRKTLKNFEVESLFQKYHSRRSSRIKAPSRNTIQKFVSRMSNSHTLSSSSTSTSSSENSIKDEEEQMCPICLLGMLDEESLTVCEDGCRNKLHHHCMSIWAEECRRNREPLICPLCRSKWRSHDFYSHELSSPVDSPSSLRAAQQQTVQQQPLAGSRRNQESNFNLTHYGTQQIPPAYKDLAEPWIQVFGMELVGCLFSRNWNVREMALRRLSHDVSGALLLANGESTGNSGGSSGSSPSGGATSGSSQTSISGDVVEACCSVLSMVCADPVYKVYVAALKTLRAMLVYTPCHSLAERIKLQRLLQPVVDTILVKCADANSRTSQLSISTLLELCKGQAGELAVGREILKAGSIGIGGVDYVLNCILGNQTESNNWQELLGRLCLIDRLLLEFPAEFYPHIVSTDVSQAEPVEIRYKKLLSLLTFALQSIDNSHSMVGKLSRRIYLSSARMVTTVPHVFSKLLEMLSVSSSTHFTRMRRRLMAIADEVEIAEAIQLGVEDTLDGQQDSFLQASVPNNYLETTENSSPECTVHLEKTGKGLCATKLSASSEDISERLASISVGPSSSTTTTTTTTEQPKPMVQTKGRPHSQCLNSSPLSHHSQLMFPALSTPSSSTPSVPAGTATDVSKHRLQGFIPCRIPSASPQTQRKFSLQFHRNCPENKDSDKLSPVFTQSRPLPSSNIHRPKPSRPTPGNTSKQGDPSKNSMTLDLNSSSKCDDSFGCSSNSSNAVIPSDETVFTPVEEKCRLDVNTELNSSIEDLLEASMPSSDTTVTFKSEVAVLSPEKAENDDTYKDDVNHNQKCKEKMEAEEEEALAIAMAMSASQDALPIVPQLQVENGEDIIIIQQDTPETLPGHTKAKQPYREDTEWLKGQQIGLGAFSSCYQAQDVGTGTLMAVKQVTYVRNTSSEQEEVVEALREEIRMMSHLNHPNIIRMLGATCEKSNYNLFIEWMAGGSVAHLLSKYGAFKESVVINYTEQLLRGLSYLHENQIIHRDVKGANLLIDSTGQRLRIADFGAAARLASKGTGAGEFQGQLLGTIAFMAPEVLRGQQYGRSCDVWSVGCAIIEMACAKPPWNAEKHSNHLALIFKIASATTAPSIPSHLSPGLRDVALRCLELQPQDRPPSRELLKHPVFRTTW

TRKC, sequence (Q16288 32-839): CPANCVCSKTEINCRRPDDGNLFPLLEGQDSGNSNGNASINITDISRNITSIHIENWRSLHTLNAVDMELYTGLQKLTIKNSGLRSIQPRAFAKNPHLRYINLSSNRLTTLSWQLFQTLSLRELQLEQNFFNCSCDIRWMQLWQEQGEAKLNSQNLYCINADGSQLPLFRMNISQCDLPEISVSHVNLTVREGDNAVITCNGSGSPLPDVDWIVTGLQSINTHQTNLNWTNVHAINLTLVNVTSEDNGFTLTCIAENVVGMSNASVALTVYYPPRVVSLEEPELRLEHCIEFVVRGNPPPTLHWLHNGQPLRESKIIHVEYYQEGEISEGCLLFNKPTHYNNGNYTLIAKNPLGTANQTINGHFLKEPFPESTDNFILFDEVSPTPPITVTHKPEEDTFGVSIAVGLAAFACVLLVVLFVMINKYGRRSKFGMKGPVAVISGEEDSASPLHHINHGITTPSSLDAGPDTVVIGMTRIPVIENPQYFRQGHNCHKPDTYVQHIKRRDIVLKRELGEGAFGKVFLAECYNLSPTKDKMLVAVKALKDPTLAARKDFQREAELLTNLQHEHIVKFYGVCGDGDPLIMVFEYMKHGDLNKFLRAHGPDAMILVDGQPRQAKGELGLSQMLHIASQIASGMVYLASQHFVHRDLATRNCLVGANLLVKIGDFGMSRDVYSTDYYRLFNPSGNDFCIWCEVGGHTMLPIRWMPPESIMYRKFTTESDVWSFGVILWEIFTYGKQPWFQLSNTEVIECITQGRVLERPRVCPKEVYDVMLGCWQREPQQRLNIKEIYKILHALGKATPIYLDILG

| SMILES | remaining activity at 1 µM (TRKC) | remaining activity at 1 µM (DRAK1/STK17A) | % enzyme activity (SNARK/NUAK2) | remaining activity at 1 µM (PKCmu/PRKD1) | % enzyme activity (MEKK2) | remaining activity at 1 µM (MEKK1) |
| --- | --- | --- | --- | --- | --- | --- |
| COc1cc(-c2cncc(-c3ccc(N4CCN(C)CC4)cc3)c2C)cc(F)c1C(N)=O [Compound 26a, 2-Fluoro-6-methoxy-4-(4-methyl-5-(4-(4-methylpiperazin-1-yl)phenyl)pyridin-3-yl)benzamide] | 103% | 96.4% | 93.71% | 90.1% | 95.51% | 94.3% |
| COc1cc(-c2cncc(-c3ccc(N4C[C@@H](C)N(C)[C@@H](C)C4)cc3)c2C)cc(F)c1C(N)=O [Compound 26c, 2-Fluoro-6-methoxy-4-(4-methyl-5-(4-((3R,5S)-3,4,5-trimethylpiperazin-1-yl)phenyl)pyridin-3-yl)benzamide] | 99% | 96.6% | 94.38% | 97.6% | 100.62% | 97.7% |
